Source: US8034756B2, “Formulations with unexpected cleaning performance incorporating a biodegradable chelant” (Dow Global Technologies LLC, priority 2006, dated 2011)
Entries after “also recorded” stand apart in the source; their conditions may differ.

Columns and labels:
[1] = Calcium oxalate titration; type: physicochemical; conditions: pH about 11.6; titrated with 0.5 M CaCl2 to first faint permanent turbidity
Description: The primary metal present in the standard ASTM soil is calcium. One method of estimating the calcium control performance of a chelating agent is to perform a calcium titration that utilizes the tendency to produce a calcium precipitate when a given amount of chelant can no longer control any additional added calcium, thus producing a visible precipitate. Using such a titration test, one normally deems the best chelants for calcium control as those that accept the most calcium before the precipitate appears per a given unit of chelating agent. A standard titration test often employed to determine a chelant's calcium control effectiveness is the calcium oxalate titration. In this titration, standard calcium chloride titrant is added to a measured amount of chelating agent and the onset of calcium oxalate precipitate (detected as the first permanent turbidity that forms) defines the amount of calcium that can be controlled. Strong chelants accept a mole-for-mole amount of calcium, while weaker chelants will accept less than a mole-for-mole amount of calcium in this titration. […]

[2] = overall constant, log of [metal complex]/([free metal][free ligand]); cited from earlier work
[3] = overall constant, log of [metal complex]/([free metal][free ligand]); cited from earlier work; remark: listed apart in the source
[4] = overall constant, log of [metal complex]/([free metal][free ligand]); cited from earlier work; remark: listed apart in the source
[5] = CSMA DCC-16 scrubber test for removal of lime soap (panel rating); conditions: panel scale 0 to 5; 1 gram cleaning solution, 30 seconds, 6 cycles at 454 grams of force; formulation with 3.2% chelant salt
Description: Black ceramic tiles (meeting ANSI standard A371.1, 4¼″ square) are soiled as directed by the procedure described in […] Specialties Manufacturers Association DCC-16, (CSMA Detergents Division Test Methods Compendium—Third Edition—May 1995—Pages I-51 to I-55) “Guidelines for Evaluating the Efficacy of Bathroom Cleaners, Part 2: Scrubber Test for Measuring the Removal of Lime Soap.”. The principal metals present in the soil mixture used in the tile cleaning test are calcium, followed by magnesium, present as their highly insoluble stearate salts (soap scum). Cleaning solution formulations are prepared as described in the previous example. To the surface of the soiled tiles on the scrubbing apparatus, 1 gram of cleaning solution is sprayed and allowed to stand for 30 seconds. The tile is then scrubbed with a pre-moistened sponge with 454 grams of force for 6 cycles (total of 12 passes over the soiled tile). The tile is then rinsed with water and allowed to air dry. Panelists judge the cleanliness of the tiles on a scale from 0 to 5 (with “0” for completely dirty and “5” for completely cleaned), and the results of the observations are averaged.

[6] = Standard laboratory biodegradation tests (OECD 301A, 301B, 301D, 301E, 306); conditions: 301E and OECD 306 seawater test
Description: The above Log K values show the dramatically greater chelation strength of EDTA as compared to HEIDA. One would expect that the chelating agent with the greatest metal ion affinity (in this case, EDTA) would have the better performance for removing the soil containing Ca, Mg, and Fe3+.

[7] = ASTM D5343 cleaning performance of ceramic tile cleaners (number of strokes); conditions: ASTM D5343 tile cleaning test
Description: Cleaning formulations are prepared to contain the following (by weight): 2.62% Sodium dodecylbenzene sulfonic acid, 2.62% cocoamidopropyl betaine (Lonzaine C), 2.62% ethylene glycol butyl ether (Dowanol EB™), 3.2% of the chelant salt (except for the blank, which contains all components except the chelant), and the balance water. Thus the formulation of Example 31 contains 3.2% by weight of the chelant salt (in this case, K2HEIDA), and so on for Examples 32 and 33 which evaluate (K)1.8(Na)0.2(HEIDA), and (K)1.6(Na)0.4(HEIDA), respectively, as well as Comparative Examples 27-30 which evaluate the formulations containing Na4EDTA, Na2HEIDA, K4EDTA, and (K)1.0(Na)1.0(HEIDA), respectively.
The cleaning ability of these compositions is determined according to ASTM D5343, “Standard Guide for Evaluating Cleaning Performance of Ceramic Tile Cleaners:” using soiled white bathroom tiles as directed by the procedure. […] 10 ml of the cleaning formulation is placed on the face of a pre-moistened sponge, then the number of strokes (under 454 grams of force) are determined to achieve soil removal of 90% or greater. The number of strokes required by each formulation to obtain 90% or greater soil removal is recorded for each cleaning formulation.

biodegradability [6] | SMILES | % Molar Chelation of calcium (max. = 100) [1] | Log K Fe3+ [2] | Log K Mg [3] | Log K Ca [4] | Cleaning rating (higher is better) [5] | cleaning performance compared in words [7]
 | O=C(O)CN(CCN(CC(=O)O)CC(=O)O)CC(=O)O [EDTA, ethylene diamine tetraacetate] | 100% | 25.1 | 8.7 | 10.7 |  | 
readily biodegradable | O=C([O-])CN(CCO)CC(=O)[O-].[K+].[K+] [Example K2HEIDA] |  |  |  |  | 4.67 (+/−0.26) | equal performance; also recorded: performs equally as well as K4EDTA
 | O=C([O-])CN(CCN(CC(=O)[O-])CC(=O)[O-])CC(=O)[O-].[K+].[K+].[K+].[K+] [Example K4EDTA] |  |  |  |  | 3.60 (+/−0.13) | 
